{"source": "patent US20160264593A1", "about": "(priority 2013, published 2016)", "assay": "in vivo", "parameters": "species or system SD rats", "settings": "rat, 1.4 mg/kg; for Kp: AUC(0-t) ratio of liver over plasma", "protocol": "113 was dissolved in 4% NaHCO3 in saline for IV administration. The detailed procedure of dosing solution preparation was presented in Appendix I.\n15 animals were placed on the study. The animals in IV arm were free access to food and water. For PO dose group, the animals were fasted overnight prior to dosing and the food was resumed 4 hours postdose.\nOne extra animal was used for blank liver, brain and plasma generation (5 mL per animal). The resulting blank liver, brain and plasma were then applied to the development of bioanalytical method and sample bioanalysis for the entire study.\nThe IV injection was conducted via foot dorsal vein. PO via oral gavage.\nBlood collection: The animal is restrained manually. Approximately 200 μL of blood/time point is collected into sodium heparin tube via cardiac puncture for terminal bleeding (anesthetized under carbon dioxide). Blood sample will be put on ice and centrifuged to obtain plasma sample (2000 g, 5 min under 4° C.) within 10 minutes.\nLiver collection: The animal will be euthanized with carbon dioxide inhalation. Open abdominal cavity with scissor to expose internal organs. Hold the carcass in an upright position and allow the organs to fall forward. Cut the connective tissues and remove the organs. Then the organs are rinsed with cold saline, dried on filtrate paper, placed into a screw-top tube and weighed, snap frozen by placing into dry-ice immediately.\nBrain collection: Make a mid-line incision in the animals scalp and retract the skin. Using small bone cutters and rongeurs, remove the skull overlying the brain. Remove the brain using a spatula and rinse with cold saline, dried on filtrate paper, placed into a screw-top tube and weighed, snap frozen by placing into dry-ice immediately. Brain tissue will be homogenized for 2 min with 3 volumes (v/w) of homogenizing solution (PBS pH 7.4) right before analysis. Plasma, brain and liver samples were stored at approximately −80° C. until analysis. The backup samples will be discarded after three weeks after in-life completion unless requested. The unused dosing solutions will be discarded within three weeks after completion of the study.\nThe PK parameters were determined by non-compartmental model of non-compartmental analysis tool, Pharsight Phoenix WinNonlin® 6.2 software.\nConcentration data within 80%-120% of LLOQ was considered within normal instrumental variation and presented in the results.\nTime points were automatic selected by “best fit” model for terminal half life estimation as the first option. Manual selection was applied when “best fit” could not well define the terminal phase.", "key": {"[1]": {"settings": "male, Sprague-Dawley (SD), iv, 6 hr"}, "[2]": {"settings": "male, SD, iv, Liver-plasma concentration ratio of 113"}, "[3]": {"settings": "male, SD, iv, liver concentration of 113"}, "[4]": {"settings": "male, SD, iv, plasma concentration of 113"}, "[5]": {"settings": "male, SD, po, plasma concentration of 113"}, "[6]": {"settings": "male, Sprague-Dawley, iv, Brain-plasma concentration ratio of 113"}, "[7]": {"settings": "male, Sprague-Dawley, iv, brain concentration of 113"}}}
{"smiles": "CN1CCN(C(=O)C2C3CCC(O3)C2C(=O)O)CC1", "note": "(stereo not drawn) [Compound 100, 3-(4-methylpiperazine-1-carbonyl)-7-oxa-bicyclo[2,2,1]-heptane-2-carboxylic acid]", "values": [{"measurement": "AUC(0-inf)", "setting": "male, Sprague-Dawley (SD), iv", "result": 2830, "unit": "ng·h/mL"}, {"measurement": "AUC(0-t)", "setting": "male, Sprague-Dawley (SD), iv", "result": 2800, "unit": "ng·h/mL"}, {"measurement": "AUC(0-t) of 100", "setting": "male, Sprague-Dawley (SD), iv", "result": 703, "unit": "ng·h/mL"}, {"measurement": "AUC(0-∞) of 100", "setting": "male, Sprague-Dawley (SD), iv", "result": 707, "unit": "ng·h/mL"}, {"measurement": "Tmax", "setting": "male, Sprague-Dawley (SD), iv", "result": 15, "unit": "min"}, {"measurement": "Tmax of 100", "setting": "male, Sprague-Dawley (SD), iv", "result": 15, "unit": "min"}, {"measurement": "Liver-plasma concentration ratio of 100", "setting": "[1]", "result": 7.32}, {"measurement": "plasma concentration of 100", "setting": "[1]", "result": 3.25, "unit": "ng/mL"}, {"measurement": "AUC(0-last) of 100 in plasma", "setting": "male, Sprague-Dawley, iv", "result": 703, "unit": "ng·h/mL"}, {"measurement": "AUC(0-t) ratio of liver over plasma, 100", "setting": "male, Sprague-Dawley, iv", "result": 399}, {"measurement": "AUC(0-∞) of 100 in plasma", "setting": "male, Sprague-Dawley, iv", "result": 707, "unit": "ng·h/mL"}, {"measurement": "Cmax of 100 in liver", "setting": "male, Sprague-Dawley, iv", "result": 1895, "unit": "ng/g"}, {"measurement": "Cmax of 100 in plasma", "setting": "male, Sprague-Dawley, iv", "result": 554, "unit": "ng/mL"}, {"measurement": "Tmax of 100 in liver", "setting": "male, Sprague-Dawley, iv", "result": 15, "unit": "min"}, {"measurement": "Tmax of 100 in plasma", "setting": "male, Sprague-Dawley, iv", "result": 15, "unit": "min"}, {"measurement": "plasma concentration of 100", "setting": "male, Sprague-Dawley, iv, 6 h", "result": 3.25, "unit": "ng/mL"}, {"measurement": "AUC(0-last) of 100 in liver", "setting": "iv", "result": 2804, "unit": "ng·h/g"}, {"measurement": "AUC(0-∞) of 100 in liver", "setting": "iv", "result": 2834, "unit": "ng·h/g"}, {"measurement": "AUClast-liver/AUClast-plasma of 100", "setting": "iv", "result": 399}]}
{"smiles": "CN1CCN(C(=O)C2C(C(=O)OCC(Cl)(Cl)Cl)[C@H]3CC[C@@H]2O3)CC1", "note": "(stereo partly drawn) [Compound 113]", "values": [{"measurement": "Liver-plasma concentration ratio of 113", "setting": "male, SD, iv, 1 h", "result": 1.18}, {"measurement": "AUC(0-t)", "setting": "male, SD, iv, AUClast of 113 in plasma", "result": 155, "unit": "ng·h/mL"}, {"measurement": "Kp at 0.25 h", "setting": "[2]", "result": 0.321}, {"measurement": "Kp at 1 h", "setting": "[2]", "result": 1.35}, {"measurement": "concentration at 0.25 h", "setting": "[3]", "result": 55.5, "unit": "ng/g"}, {"measurement": "concentration at 1 h", "setting": "[3]", "result": 14.6, "unit": "ng/g"}, {"measurement": "concentration at 0.25 h", "setting": "[4]", "result": 173, "unit": "ng/mL"}, {"measurement": "concentration at 1 h", "setting": "[4]", "result": 10.8, "unit": "ng/mL"}, {"measurement": "plasma concentration of 113", "setting": "male, SD, po, 2 h", "result": 2.15, "unit": "ng/mL"}, {"measurement": "concentration at 0.25 h", "setting": "[5]", "result": 18.3, "unit": "ng/mL"}, {"measurement": "concentration at 1 h", "setting": "[5]", "result": 4.61, "unit": "ng/mL"}, {"measurement": "concentration at 2 h", "setting": "[5]", "result": 2.15, "unit": "ng/mL"}, {"measurement": "Cmax of 113", "setting": "male, Sprague-Dawley (SD), iv", "result": 90.4, "unit": "ng/mL"}, {"measurement": "Tmax", "setting": "male, Sprague-Dawley (SD), iv", "result": 15, "unit": "min"}, {"measurement": "Cmax", "setting": "male, Sprague-Dawley (SD), iv, Cmax of 113", "result": 46.2, "unit": "ng/mL"}, {"measurement": "F of 113", "setting": "male, Sprague-Dawley (SD), po", "result": 10.1, "unit": "%"}, {"measurement": "Tmax", "setting": "male, Sprague-Dawley (SD), po", "result": 15, "unit": "min"}, {"measurement": "AUC(0-t)", "setting": "male, Sprague-Dawley (SD), po, AUC(0-t) of 113", "result": 15.7, "unit": "ng·h/mL"}, {"measurement": "Cmax", "setting": "male, Sprague-Dawley (SD), po, Cmax of 113", "result": 17.7, "unit": "ng/mL"}, {"measurement": "bioavailability", "setting": "male, Sprague-Dawley", "result": 10.1, "unit": "%"}, {"measurement": "Tmax", "setting": "male, Sprague-Dawley, iv", "result": 15, "unit": "min"}, {"measurement": "Kp", "setting": "male, Sprague-Dawley, iv, 113", "result": 18.1}, {"measurement": "Kp", "setting": "male, Sprague-Dawley, iv, 113 (printed in the brain paragraph)", "result": 30.6}, {"measurement": "Kp at 0.25 h", "setting": "[6]", "result": 0.498}, {"measurement": "Kp at 1 h", "setting": "[6]", "result": 0.537}, {"measurement": "Cmax", "setting": "male, Sprague-Dawley, iv, Cmax of 113 in brain", "result": 90.4, "unit": "ng/g"}, {"measurement": "Cmax", "setting": "male, Sprague-Dawley, iv, Cmax of 113 in liver", "result": 46.2, "unit": "ng/g"}, {"measurement": "Kp at 1 h", "setting": "male, Sprague-Dawley, iv, Liver-plasma concentration ratio of 113", "result": 1.27}, {"measurement": "concentration at 0.25 h", "setting": "[7]", "result": 86.2, "unit": "ng/g"}, {"measurement": "concentration at 1 h", "setting": "[7]", "result": 5.8, "unit": "ng/g"}, {"measurement": "Tmax", "setting": "male, Sprague-Dawley, po", "result": 15, "unit": "min"}, {"measurement": "AUC(0-t)", "setting": "male, Sprague-Dawley, po, AUClast of 113 in plasma", "result": 15.7, "unit": "ng·h/mL"}, {"measurement": "Cmax", "setting": "male, Sprague-Dawley, po, Cmax of 113 in plasma", "result": 17.7, "unit": "ng/mL"}, {"measurement": "AUC(0-last) of 113 in brain", "setting": "iv", "result": 47.5, "unit": "ng·h/g"}, {"measurement": "AUC(0-last) of 113 in liver", "setting": "iv", "result": 28.1, "unit": "ng·h/g"}]}
